Values quoted from earlier work in patent US8216611B2, “Combined-step process for pharmaceutical compositions” (Mylan Pharmaceuticals ULC, priority 2005, dated 2012).

Legend:
healthy volunteers = test system: healthy volunteers; design: tolerability at single dose: dose or concentration left out as unconfirmed
epileptic patients = settings: doses up to 4000 mg/day, preliminary data

Structure (SMILES): CC[C@@H](C(N)=O)N1CCCC1=O [levetiracetam, (−)-(S)-α-ethyl-2-oxo-1-pyrrolidine acetamide]
- tolerability at repeated doses (healthy volunteers; repeated doses (1500 mg/day for 14 days)): well tolerated
- tolerability at single dose (healthy volunteers; single dose): well tolerated
- tolerability in epileptic patients (epileptic patients): good tolerability
- solubility in water: 104.0 g/100 ml
